For seven molecules, IC50 and DC50 results are on record in US20260274853A1, “BIFUNCTIONAL COMPOUNDS CONTAINING PYRIMIDINE DERIVATIVES FOR DEGRADING CYCLIN-DEPENDENT KINASE 2 VIA UBIQUITIN PROTEASOME PATHWAY” (NIKANG THERAPEUTICS, INC., priority 2022, published 2026).

Structures are written as SMILES. Some results are limits rather than exact numbers.

Assay [1] has as its target T1, CDK2 (Homo sapiens, UniProt P24941).
T1 construct: High-Throughput Measurement of Cellular Endogenous CDK2; endogenous in cells; host or cells: OVCAR3
Nature of the assay: Inhibition of CDK2: phospho-Rb (S807/811) HTRF measurement in OVCAR3 cells. The format is cell-based. The settings on record: 24 h compound treatment, read-out: pRb (nM), IC50 in pRB(S807/811) assay.

Assay [2] deals with T1, CDK2. Nature of the assay: CDK2 HTRF assay: cellular endogenous CDK2 level in OVCAR3 cells. In kind it is cell-based. The settings on record: 24 hours compound treatment, read-out: DC50 (half maximal degradation concentration of CDK2). Put shortly:
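Endogenous CDK2 degradation in OVCAR3 cells after 24 h compound treatment at 0.3–10,000 nM. Lysates assayed with an HTRF total-CDK2 two-antibody kit, TR-FRET 665/620 ratio normalized to DMSO. DC50 from four-parameter logistic fit, reported as potency bins.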

`O=C1CCC(N2CC3CCC(C2)N3Cc2cccc(S(=O)(=O)N3CCC(Nc4ncc(C(F)(F)F)c(-c5cnn(CC(F)(F)F)c5)n4)CC3)c2)C(=O)N1` (centres unmarked) [Example 65, 3-(8-(3-((4-((4-(1-(2,2,2-trifluoro-ethyl)-1H-pyrazol-4-yl)-5-(trifluoro-methyl)pyrimidin-2-yl)amino)-piperidin-1-yl)sulfonyl)benzyl)-3,8-diazabicyclo-[3.2.1]octan-3-yl)-piperidine-2,6-dione]: the IC50 at CDK2 [1] is below 100 nM. Moreover, the DC50 at CDK2 [2] was below 100 nM.

In the case of `Cn1nc(N2CCC(=O)NC2=O)c2ccc(N3CCN(CC4CCN(c5cccc(S(=O)(=O)N6CCC(Nc7ncc(C(F)(F)F)c(-c8cnn(CC(F)(F)F)c8)n7)CC6)c5)CC4)CC3)cc21` [Example 67, 1-(1-methyl-6-(4-((1-(3-((4-((4-(1-(2,2,2-trifluoroethyl)-1H-pyrazol-4-yl)-5-(trifluoromethyl)pyrimidin-2-yl)amino)-piperidin-1-yl)sulfonyl)phenyl)piperidin-4-yl)methyl)-piperazin-1-yl)-1H-indazol-3-yl)-dihydropyrimidine-2,4(1H,3H)-dione], at CDK2 [1], the IC50 was below 100 nM. In addition, the DC50 at CDK2 [2] was below 100 nM.

Turning to `O=C1CCC(NCc2cccc(S(=O)(=O)N3CCC(Nc4ncc(C(F)(F)F)c(-c5cnn(CC(F)(F)F)c5)n4)CC3)c2)C(=O)N1` (centres unmarked) [Example 68, 3-((3-((4-((4-(1-(2,2,2-trifluoroethyl)-1H-pyrazol-4-yl)-5-(trifluoromethyl)-pyrimidin-2-yl)amino)piperidin-1-yl)-sulfonyl)benzyl)amino)piperidine-2,6-dione], the IC50 on CDK2 [1] was below 100 nM. Besides, on CDK2 [2], the DC50 is below 100 nM.

As to `Cn1c(S(=O)(=O)N2CCC(Nc3ncc(C(F)(F)F)c(-c4cnn(CC(F)(F)F)c4)n3)CC2)cnc1CN1CCN(c2ccc3c(N4CCC(=O)NC4=O)nn(C)c3c2)CC1` [Example 69, 1-(1-methyl-6-(4-((1-methyl-5-((4-((4-(1-(2,2,2-trifluoroethyl)-1H-pyrazol-4-yl)-5-(trifluoromethyl)pyrimidin-2-yl)amino)-piperidin-1-yl)sulfonyl)-1H-imidazol-2-yl)methyl)piperazin-1-yl)-1H-indazol-3-yl)dihydropyrimidine-2,4(1H,3H)-dione], on CDK2 [1], the IC50 was below 100 nM. The DC50 at CDK2 [2] is below 100 nM.

As for `O=C1CCC(NC2CCN(Cc3cccc(S(=O)(=O)N4CCC(Nc5ncc(C(F)(F)F)c(-c6cnn(CC(F)(F)F)c6)n5)CC4)c3)CC2)C(=O)N1` (centres unmarked) [Example 72, 3-((1-(3-((4-((4-(1-(2,2,2-trifluoro-ethyl)-1H-pyrazol-4-yl)-5-(trifluoromethyl)-pyrimidin-2-yl)amino)-piperidin-1-yl)-sulfonyl)benzyl)piperidin-4-yl)amino)-piperidine-2,6-dione], on CDK2 [1], the IC50 is below 100 nM. At CDK2 [2], the DC50 is below 100 nM.

With `Cn1nc(N2CCC(=O)NC2=O)c2cc(F)c(N3CCN(Cc4cccc(S(=O)(=O)N5CC[C@H](Nc6ncc(C(F)(F)F)c(-c7cnn(CC(F)(F)F)c7)n6)[C@H](F)C5)c4)CC3)cc21` [Example 73, 1-(5-fluoro-6-(4-(3-(((3R,4S)-3-fluoro-4-((4-(1-(2,2,2-trifluoroethyl)-1H-pyrazol-4-yl)-5-(trifluoromethyl)pyrimidin-2-yl)amino)piperidin-1-yl)sulfonyl)-benzyl)piperazin-1-yl)-1-methyl-1H-indazol-3-yl)dihydropyrimidine-2,4(1H,3H)-dione], on CDK2 [1], the IC50 was below 100 nM. For the same molecule, the DC50 at CDK2 [2] was below 100 nM.

`Cn1nc(N2CCC(=O)NC2=O)c2ccc(C3CCN(Cc4cccc(S(=O)(=O)[C@H]5CC[C@H](Nc6ncc(C(F)(F)F)c(-c7cnn(CC(F)(F)F)c7)n6)CC5)c4)CC3)cc21` [Example 74, 1-(1-methyl-6-(1-(3-(((1r,4r)-4-((4-(1-(2,2,2-trifluoroethyl)-1H-pyrazol-4-yl)-5-(trifluoromethyl)pyrimidin-2-yl)-amino)cyclohexyl)sulfonyl)benzyl)-piperidin-4-yl)-1H-indazol-3-yl)dihydro-pyrimidine-2,4(1H,3H)-dione]: the IC50 on CDK2 [1] is below 100 nM. Further, the DC50 at CDK2 [2] was below 100 nM.
